{"source": "patent US20080138284A1", "about": "“Novel Peptides That Promote Lipid Efflux” (Lipid Sciences, Inc., priority 2006, published 2008)", "key": {"[1]": {"system": "HeLa cells transfected with only a hygromycin-resistant control plasmid (control cells)", "experiment": "Cholesterol and phospholipid efflux from control HeLa cells (incl. time course)", "assay_type": "cell-based, human", "conditions": "for cholesterol efflux from control cells, time course: rate compared with ABCA1 cells", "method": "HeLa cells stably transfected with human ABCA1 cDNA (ABCA1 cells) and HeLa cells transfected with only a hygromycin-resistant control plasmid (control cells) are produced and grown in α-modified Eagle's medium (aMEM) plus 10% fetal calf serum, as described by Remaley et al. (Biochem. Biophys. Res. Commun. 280:818-823, 2001). Cholesterol and phospholipid efflux is performed for 18 hours on noncholesterol-loaded cells radiolabeled with either cholesterol or choline (Remaley et al., Arterioscler. Thromb. Vasc. Biol. 17:1813-1821, 1997). Percentage efflux is calculated after subtracting the radioactive counts in the blank media (aMEM plus 1 mg/ml of BSA), and expressed as the percent of total radioactive counts removed from the cells during the efflux period.\nABCA1 cells are used to assess the ability of apoA-I and synthetic peptides to efflux lipid from cells. […] The peptides of the present invention efflux approximately 2- to 4-fold more cholesterol and phospholipid from ABCA1 cells than from control cells. Both the peptides of the present invention and apoA-I began to show saturation for lipid efflux at approximately the same protein concentration of 10 μg/ml.\nCholesterol efflux from ABCA1 cells to apoA-I is first detectable after 2 hours and increases throughout the 30 hour efflux period. […] Overall, the kinetics for cholesterol efflux to peptides of the present invention from ABCA1 cells is similar to that of apoA-I, except that cholesterol efflux is first detectable after 30 minutes."}, "[2]": {"system": "atherosclerotic coronary artery", "experiment": "Coronary atherosclerosis by IVUS in individuals with acute coronary syndrome", "assay_type": "in vivo, human", "conditions": "iv weekly for 5 to 8 weeks, on stable hypolipidemic drug therapy", "excerpt": "Individuals with acute coronary syndrome and documented atherosclerosis have a cardiac catherization with intravascular ultrasound (IVUS) to document coronary atherosclerosis of 20 to 50% obstruction in the target artery. Each individual is on stable hypolipidemic drug therapy and receives an acceptable dose of a peptide of the present invention and/or an associated fragment iv weekly for a period of 5 to 8 weeks. A repeat IVUS measurement is made at the end of the treatment period to assess the effect of the peptide infusion on coronary atherosclerosis in the target vessel."}, "[3]": {"system": "FU5AH rat hepatoma cells (SR-B1)", "experiment": "SR-B1 mediated cholesterol efflux", "assay_type": "cell-based", "conditions": "peptide samples run at 30 μg/ml", "excerpt": "The methods employed in this study have been described in U.S. Pat. Nos. 7,029,863, 7,060,452, U.S. Patent Application Publication No. 2005/0191715, and in Moya et al., Arteriosclerosis & Thrombosis 1994:14:1056-1065 and Liu et al., J. Biol. Chem., 2003:278(44), 42976-42984. SR-B1 mediated cholesterol efflux is examined in FU5AH rat hepatoma cells and ABCA1 mediated cholesterol efflux is examined in J774 mouse macrophage cells as described in these references."}, "[4]": {"system": "apoE knockout and LDL-receptor knockout mice", "experiment": "Aortic atherosclerosis after ip peptide injection in ApoE knockout and LDL receptor knockout mice", "assay_type": "in vivo, mouse", "conditions": "30 mg/kg ip three times per week, 4-5 or 8-10 weeks; 'proposed studies'", "method": "ApoE knockout and LDL receptor knockout mice, two well established animal models for the study of atherosclerosis, are injected with either saline as control or the synthetic peptides of the present invention to ascertain if these peptides can be used to increase HDL and decrease atherosclerosis.\nThe mice receive 3 injections per week for either […] or 8-10 weeks. After the completion of the injection, the amount of hardening of the arteries or atherosclerosis is determined in the control injected animals and peptide injected animals to determine if the injections of the synthetic peptide decreased development of atherosclerosis.\nThe proposed studies test if intraperitoneal infusions of the apoA-I mimetic peptides of the present invention result in decreased aortic atherosclerosis in apoE and LDL receptor knockout mice, two well established mouse models of atherosclerosis.\nFour to six week old C57B1/6 mice, apoE knockout (JAX 2052) and LDL-receptor knockout (JAX 2207) mice, all in the C57B1/6 background, are obtained from Jackson Laboratories. During the entire study, C57B1/6 and apoE knockout mice are maintained on a regular chow diet (0.02% cholesterol, 3% fat) and LDL-receptor mice are maintained on a Western diet (TD88137; Harlan Teklad; Madison, Wis. —containing 0.20% cholesterol and 21% fat).\nIn the first study (Infusion Study A), C57B1/6 mice as well as apoE knockout and LDL receptor knockout mice are injected by the intraperitoneal (ip) route or intravenous (iv) route with synthetic peptides of the present invention mimetic (30 mg/kg) on up to four different occasions two weeks apart. To evaluate changes in the plasma lipid and lipoprotein profile associated with injection of the synthetic peptide, blood for lipid analyses is obtained before and at 2, 4, 6, 24 and 48 hours after peptide injection. At the end of the study the animals are sacrificed.\nFor infusion studies B and C, mice are injected ip with either placebo or a synthetic peptide of the present invention (30 mg/kg) three times per week for either 4 to 5 weeks (Infusion Study B) or 8 to 10 weeks (Infusion Study C). Blood for lipid and lipoprotein analyses is obtained at the beginning of the study (day 0) and every two weeks after placebo/peptide injection and at the completion of the study. At the completion of the study (4 to 5 weeks for Infusion Study B and 8 to 10 weeks for Infusion Study C), the animals are sacrificed, organs harvested for analyses of cholesterol content and for aortic atherosclerosis.\nFor Infusion Study A, 5 four to six week old C57B1/6, apoE knockout (JAX 2052) and LDL receptor knockout (JAX 2207) control mice receive ip or iv injections of the synthetic peptide of the present invention for up to four times two weeks apart. The sequence of procedures for this study is as follows: • 1) Mice are first anaesthetized by using 1-3% isoflurane by inhalation prior to each ip injection to insure appropriate and complete delivery of placebo/peptide. • 2) Mice are injected with either placebo (0.2 ml saline) or apoA-I synthetic peptide (30 mg/kg in 0.2 ml saline) via either the intraperitoneal or intravenous route. • 3) In order to evaluate changes in the plasma lipids and lipoproteins in the time-frame between injections, each mouse in this study group is bled from the retro-orbital sinus following administration of a topical anesthesia. before and at 2, 4, 6, 24 and 48 hours after the peptide injection. No more than 300 ul blood is drawn during this 48 hour period. • 4) At the end of infusion study A all mice are sacrificed by using Avertin (2.5%, 0.011 ml/gm, ip) or ketamine (80 ug/gm, ip). […]"}}, "note": "Ends that are not written are not given here.", "data": [{"substance": "Ac-Leu Glu Ser Ala Lys Val Ser Ala Leu Ser Ala Leu Glu Glu Ala Thr Lys Lys Ala Lys Pro Val Leu Leu Glu Ser Phe Lys Val Ser Phe Leu Ser Ala Leu Glu Glu Tyr Thr Lys Lys-NH2 (Ac-LESAKVSALSALEEATKKAKPVLLESFKVSFLSALEEYTKK-NH2) [SEQ ID NO:372]", "values": [{"measurement": "removal of cholesterol and phospholipids from control cells relative to Apo A-I", "setting": "[1]", "value": "comparable to or more than that removed by Apo A-I"}, {"measurement": "cholesterol efflux from control cells, time course", "setting": "[1]", "value": "promote cholesterol efflux from control cells but at a lower rate"}, {"measurement": "plaque in the atherosclerotic coronary artery (IVUS)", "setting": "[2]", "value": "reduce plaque in the atherosclerotic coronary artery"}, {"measurement": "effect on cholesterol efflux from the Fu5AH cells (SRB1 pathway)", "setting": "[3]", "value": "negligible or no effect"}, {"measurement": "aortic atherosclerosis compared to controls", "setting": "[4]", "value": "decrease aortic atherosclerosis compared to controls"}]}, {"substance": "SDELRQRLAARLEALKENAKPVLLESFKVSFLSALEEYTKK [SEQ ID NO:80]", "values": [{"measurement": "removal of cholesterol and phospholipids from control cells relative to Apo A-I", "setting": "[1]", "value": "comparable to or more than that removed by Apo A-I"}, {"measurement": "cholesterol efflux from control cells, time course", "setting": "[1]", "value": "promote cholesterol efflux from control cells but at a lower rate"}, {"measurement": "plaque in the atherosclerotic coronary artery (IVUS)", "setting": "[2]", "value": "reduce plaque in the atherosclerotic coronary artery"}, {"measurement": "effect on cholesterol efflux from the Fu5AH cells (SRB1 pathway)", "setting": "[3]", "value": "negligible or no effect"}, {"measurement": "aortic atherosclerosis compared to controls", "setting": "[4]", "value": "decrease aortic atherosclerosis compared to controls"}]}, {"substance": "Ac-Ser Asp Glu Leu Arg Gln Arg Leu Ala Ala Arg Leu Glu Ala Leu Lys Glu Asn Ala Lys Pro Val Leu Leu Glu Ser Phe Lys Val Ser Phe Leu Ser Ala Leu Glu Glu Tyr Thr Lys Lys-NH2 (Ac-SDELRQRLAARLEALKENAKPVLLESFKVSFLSALEEYTKK-NH2) [SEQ ID NO:355]", "values": [{"measurement": "removal of cholesterol and phospholipids from control cells relative to Apo A-I", "setting": "[1]", "value": "comparable to or more than that removed by Apo A-I"}, {"measurement": "cholesterol efflux from control cells, time course", "setting": "[1]", "value": "promote cholesterol efflux from control cells but at a lower rate"}, {"measurement": "plaque in the atherosclerotic coronary artery (IVUS)", "setting": "[2]", "value": "reduce plaque in the atherosclerotic coronary artery"}, {"measurement": "effect on cholesterol efflux from the Fu5AH cells (SRB1 pathway)", "setting": "[3]", "value": "negligible or no effect"}, {"measurement": "aortic atherosclerosis compared to controls", "setting": "[4]", "value": "decrease aortic atherosclerosis compared to controls"}]}, {"substance": "GEEMRDRARAHVDALRTHAKPVLLESFKVSFLSALEEYTKK [SEQ ID NO:72]", "values": [{"measurement": "removal of cholesterol and phospholipids from control cells relative to Apo A-I", "setting": "[1]", "value": "comparable to or more than that removed by Apo A-I"}, {"measurement": "cholesterol efflux from control cells, time course", "setting": "[1]", "value": "promote cholesterol efflux from control cells but at a lower rate"}, {"measurement": "plaque in the atherosclerotic coronary artery (IVUS)", "setting": "[2]", "value": "reduce plaque in the atherosclerotic coronary artery"}, {"measurement": "effect on cholesterol efflux from the Fu5AH cells (SRB1 pathway)", "setting": "[3]", "value": "negligible or no effect"}, {"measurement": "aortic atherosclerosis compared to controls", "setting": "[4]", "value": "decrease aortic atherosclerosis compared to controls"}]}, {"substance": "LESAKVSALSALEEATKKAKPVLLESFKVSFLSALEEYTKK [SEQ ID NO:89]", "values": [{"measurement": "removal of cholesterol and phospholipids from control cells relative to Apo A-I", "setting": "[1]", "value": "comparable to or more than that removed by Apo A-I"}, {"measurement": "cholesterol efflux from control cells, time course", "setting": "[1]", "value": "promote cholesterol efflux from control cells but at a lower rate"}, {"measurement": "plaque in the atherosclerotic coronary artery (IVUS)", "setting": "[2]", "value": "reduce plaque in the atherosclerotic coronary artery"}, {"measurement": "effect on cholesterol efflux from the Fu5AH cells (SRB1 pathway)", "setting": "[3]", "value": "negligible or no effect"}, {"measurement": "aortic atherosclerosis compared to controls", "setting": "[4]", "value": "decrease aortic atherosclerosis compared to controls"}]}, {"substance": "Ac-Gly Glu Glu Met Arg Asp Arg Ala Arg Ala His Val Asp Ala Leu Arg Thr His Ala Lys Pro Val Leu Leu Glu Ser Phe Lys Val Ser Phe Leu Ser Ala Leu Glu Glu Tyr Thr Lys Lys-NH2 (Ac-GEEMRDRARAHVDALRTHAKPVLLESFKVSFLSALEEYTKK-NH2) [SEQ ID NO:354]", "values": [{"measurement": "removal of cholesterol and phospholipids from control cells relative to Apo A-I", "setting": "[1]", "value": "comparable to or more than that removed by Apo A-I"}, {"measurement": "cholesterol efflux from control cells, time course", "setting": "[1]", "value": "promote cholesterol efflux from control cells but at a lower rate"}, {"measurement": "plaque in the atherosclerotic coronary artery (IVUS)", "setting": "[2]", "value": "reduce plaque in the atherosclerotic coronary artery"}, {"measurement": "effect on cholesterol efflux from the Fu5AH cells (SRB1 pathway)", "setting": "[3]", "value": "negligible or no effect"}, {"measurement": "aortic atherosclerosis compared to controls", "setting": "[4]", "value": "decrease aortic atherosclerosis compared to controls"}]}]}
